In patent US12077503B2, “Substituted cyclic amides and their use as herbicides” (FMC CORPORATION, priority 2015, dated 2024):

Columns and labels:
Format in all cases: in vivo
[1] = test system: barnyardgrass (Echinochloa crus-galli); experiment: Test B flooded paddy test; details: Echinochloa crus-galli, Flood, 250 g ai/ha; scale of 0 to 100 where 0 is no effect and 100 is complete control; read-out: Barnyardgrass plant response rating
Procedure, shortened: (§1)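 2-leaf plants; pots flooded 3 cm over soil; cpd added to paddy water; depth held; greenhouse 13–15 d; visual rating vs controls, 0 = no effect, 100 = complete control.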

[2] = test system: sedge, umbrella (small-flower umbrella sedge, Cyperus difformis); experiment: Test B flooded paddy test; details: Cyperus difformis, Flood, 250 g ai/ha; scale of 0 to 100 where 0 is no effect and 100 is complete control; read-out: Sedge, Umbrella plant response rating
Procedure, shortened: as §1

[3] = test system: ducksalad (Heteranthera limosa); experiment: Test B flooded paddy test; details: Heteranthera limosa, Flood, 250 g ai/ha; scale of 0 to 100 where 0 is no effect and 100 is complete control; read-out: Ducksalad plant response rating
Procedure, shortened: as §1

rice (Oryra sativa) = experiment: Test B flooded paddy test; details: Oryza sativa, Flood, 250 g ai/ha; scale of 0 to 100 where 0 is no effect and 100 is complete control; read-out: Rice plant response rating
Procedure, shortened: as §1

[4] = test system: barnyardgrass (Echinochloa crus-galli); experiment: Test A postemergence; details: Echinochloa crus-galli, post-emergence, 240 h, read-out: Plant response rating, Barnyardgrass; for pest or weed control at 125 g/ha: 125 g ai/ha, postemergence, visual injury after approximately 10 d, 0 to 100 scale (0 no effect, 100 complete control); for pest or weed control at 31 g/ha: Postemergence, 31 g ai/ha, visual injury after approx. 10 d, 0 to 100 scale, 0 no effect, 100 complete control
Procedure, shortened: (§2)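 Compounds were formulated in a non-phytotoxic solvent mixture with surfactant and applied as a preemergence directed soil spray after seeding, or sprayed postemergence over plants 2 to 10 cm tall at the one- to two-leaf stage. Evaluation after about 10 d compared treated with untreated controls, using a scale from 0 (no effect) to 100 (complete control).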

[5] = test system: wheat (Triticum aestivum); experiment: Test A postemergence; details: Triticum aestivum, post-emergence, 240 h, read-out: Plant response rating, Wheat; for plant injury at 125 g/ha: 125 g ai/ha, postemergence, visual injury after approximately 10 d, 0 to 100 scale (0 no effect, 100 complete control); for plant injury at 31 g/ha: Postemergence, 31 g ai/ha, visual injury after approx. 10 d, 0 to 100 scale, 0 no effect, 100 complete control
Procedure, shortened: as §2

[6] = test system: giant foxtail (Setaria faberii); experiment: Test A postemergence; details: Setaria faberi, post-emergence, 240 h, read-out: Plant response rating, Foxtail, Giant; for pest or weed control at 125 g/ha: 125 g ai/ha, postemergence, visual injury after approximately 10 d, 0 to 100 scale (0 no effect, 100 complete control); for pest or weed control at 31 g/ha: Postemergence, 31 g ai/ha, visual injury after approx. 10 d, 0 to 100 scale, 0 no effect, 100 complete control
Procedure, shortened: as §2

[7] = test system: ryegrass, Italian (Italian ryegrass, Lolium multiflorum); experiment: Test A postemergence; details: Lolium multiflorum, post-emergence, 240 h, read-out: Plant response rating, Ryegrass, Italian; for pest or weed control at 125 g/ha: 125 g ai/ha, postemergence, visual injury after approximately 10 d, 0 to 100 scale (0 no effect, 100 complete control); for pest or weed control at 31 g/ha: Postemergence, 31 g ai/ha, visual injury after approx. 10 d, 0 to 100 scale, 0 no effect, 100 complete control
Procedure, shortened: as §2

Kochia (Kochia scoparia) = experiment: Test A postemergence; details: Bassia scoparia, post-emergence, 240 h, read-out: Plant response rating, Kochia; for pest or weed control at 125 g/ha: 125 g ai/ha, postemergence, visual injury after approximately 10 d, 0 to 100 scale (0 no effect, 100 complete control); for pest or weed control at 31 g/ha: Postemergence, 31 g ai/ha, visual injury after approx. 10 d, 0 to 100 scale, 0 no effect, 100 complete control
Procedure, shortened: as §2

[8] = test system: ragweed (common ragweed, Ambrosia elatior); experiment: Test A postemergence; details: Ambrosia artemisiifolia, post-emergence, 240 h, read-out: Plant response rating, Ragweed; for pest or weed control at 125 g/ha: 125 g ai/ha, postemergence, visual injury after approximately 10 d, 0 to 100 scale (0 no effect, 100 complete control); for pest or weed control at 31 g/ha: Postemergence, 31 g ai/ha, visual injury after approx. 10 d, 0 to 100 scale, 0 no effect, 100 complete control
Procedure, shortened: as §2

corn (Zea mays) = experiment: Test A postemergence; details: Zea mays, post-emergence, 240 h; for Corn plant response rating (crop injury, 0 = no effect, 100 = complete kill) at 125 g/ha: 125 g ai/ha, postemergence, visual injury after approximately 10 d, 0 to 100 scale (0 no effect, 100 complete control); for Corn plant response rating (crop injury, 0 = no effect, 100 = complete kill) at 31 g/ha: Postemergence, 31 g ai/ha, visual injury after approx. 10 d, 0 to 100 scale, 100 complete control
Procedure, shortened: as §2

[9] = test system: blackgrass (Alopecurus myosuroides); experiment: Test A postemergence; details: Alopecurus myosuroides, post-emergence, 240 h, read-out: Plant response rating, Blackgrass; for pest or weed control at 125 g/ha: 125 g ai/ha, postemergence, visual injury after approximately 10 d, 0 to 100 scale (0 no effect, 100 complete control); for pest or weed control at 31 g/ha: Postemergence, 31 g ai/ha, visual injury after approx. 10 d, 0 to 100 scale, 0 no effect, 100 complete control
Procedure, shortened: as §2

[10] = test system: Galium (catchweed bedstraw, Galium aparine); experiment: Test A postemergence; details: Galium, post-emergence, 240 h, read-out: Plant response rating, Galium; for pest or weed control at 125 g/ha: 125 g ai/ha, postemergence, visual injury after approximately 10 d, 0 to 100 scale (0 no effect, 100 complete control); for pest or weed control at 31 g/ha: Postemergence, 31 g ai/ha, visual injury after approx. 10 d, 0 to 100 scale, 0 no effect, 100 complete control
Procedure, shortened: as §2

[11] = test system: pigweed (Amaranthus retroflexus); experiment: Test A postemergence; details: Amaranthus retroflexus, post-emergence, 240 h, read-out: Plant response rating, Pigweed; for pest or weed control at 125 g/ha: 125 g ai/ha, postemergence, visual injury after approximately 10 d, 0 to 100 scale (0 no effect, 100 complete control); for pest or weed control at 31 g/ha: Postemergence, 31 g ai/ha, visual injury after approx. 10 d, 0 to 100 scale, 0 no effect, 100 complete control
Procedure, shortened: as §2

SMILES | pest or weed control at 250 g/ha [1] [%] | pest or weed control at 250 g/ha [2] [%] | pest or weed control at 250 g/ha [3] [%] | pest or weed control at 250 g/ha (rice (Oryra sativa)) [%] | pest or weed control at 125 g/ha [4] [%] | pest or weed control at 125 g/ha [6] [%] | pest or weed control at 125 g/ha [7] [%] | pest or weed control at 125 g/ha (Kochia (Kochia scoparia)) [%] | pest or weed control at 125 g/ha [8] [%] | Corn plant response rating (crop injury, 0 = no effect, 100 = complete kill) at 125 g/ha (corn (Zea mays)) [%] | pest or weed control at 125 g/ha [9] [%] | pest or weed control at 125 g/ha [10] [%] | pest or weed control at 125 g/ha [11] [%] | pest or weed control at 31 g/ha [4] [%] | plant injury at 31 g/ha [5] [%] | pest or weed control at 31 g/ha [6] [%] | pest or weed control at 31 g/ha [7] [%] | pest or weed control at 31 g/ha (Kochia (Kochia scoparia)) [%] | pest or weed control at 31 g/ha [8] [%] | Corn plant response rating (crop injury, 0 = no effect, 100 = complete kill) at 31 g/ha (corn (Zea mays)) [%] | also measured
CN1C[C@H](c2cc(F)cc(F)c2)[C@@H](C(=O)Nc2ncccc2F)C1=O [Compound 783] | 0 | 0 | 0 | 0 | 0 | 0 | 0 | 0 | 0 | 0 | 0 | 0 | 0 | – | – | – | – | – | – | – | plant injury at 125 g/ha [5]: 0%
CS(=O)(=O)c1ccccc1NC(=O)[C@H]1C(=O)NC[C@@H]1c1ccc(OC(F)F)cc1 [Compound 787] | 0 | 0 | 50 | 0 | 30 | 20 | 20 | 60 | 50 | 0 | 0 | 60 | 60 | – | – | – | – | – | – | – | plant injury at 125 g/ha [5]: 0%
C/C=C/C1CNC(=O)C1C(=O)Nc1cccc(F)c1F (stereo not drawn) [Compound 793] | 0 | 25 | 25 | 0 | 0 | 0 | 0 | 0 | 0 | 0 | 0 | 0 | 0 | 0 | 0 | 0 | 0 | 0 | 0 | 0 | pest or weed control at 31 g/ha [9]: 0%; pest or weed control at 31 g/ha [10]: 0%; pest or weed control at 31 g/ha [11]: 0%
CN1CC[C@@H](c2cccc(C(F)(F)F)c2)[C@H](C(=O)Nc2ccccc2F)C1=O [Compound 794] | 40 | 0 | 30 | 20 | 30 | 30 | 0 | 0 | 0 | 0 | 0 | 0 | 0 | 0 | 0 | 0 | 0 | 0 | 0 | 0 | pest or weed control at 31 g/ha [9]: 0%; pest or weed control at 31 g/ha [10]: 0%; pest or weed control at 31 g/ha [11]: 0%
CSc1ccccc1NC(=O)[C@H]1C(=O)N(C)C[C@@H]1c1cc(C)c(C)c(C)c1 [Compound 798] | 75 | 0 | 50 | 40 | 80 | 70 | 40 | 0 | 0 | 40 | 40 | 20 | 20 | 40 | 0 | 20 | 0 | 0 | 0 | 0 | pest or weed control at 31 g/ha [9]: 0%; pest or weed control at 31 g/ha [10]: 0%; pest or weed control at 31 g/ha [11]: 0%
CSc1ccccc1NC(=O)[C@H]1C(=O)N(C)C[C@@H]1c1ccc(C(F)F)cc1 [Compound 799] | 65 | 0 | 80 | 30 | 70 | 80 | 20 | 30 | 0 | 20 | 30 | 50 | 20 | 40 | 0 | 40 | 0 | 0 | 0 | 0 | pest or weed control at 31 g/ha [9]: 0%; pest or weed control at 31 g/ha [10]: 0%; pest or weed control at 31 g/ha [11]: 0%
